System: healthy subjects
Test: Measurement of onset of bowel movement in healthy subjects (stool diary card, rising single doses)
Type: in vivo, human
Conditions: for Mean Number of Bowel Movements / Median Time to First Bowel Movement: first 24 hour post dosing period; for Mean Number of Bowel Movements: standard deviation in parentheses; for Median Time to First Bowel Movement: gelatin capsules; for average Bristol score (stool consistency, 1 hard pellets to 7 liquid): placebo 3.2 (0.7)
Experimental: Subjects were monitored for safety and evidence of prokinetic effects using a stool diary card. Time and consistency (Bristol score) of each bowel movement were recorded.

CC(C)n1c(=O)c(C(=O)N[C@H]2C[C@H]3CC[C@@H](C2)N3C[C@@H](O)CN(C)S(C)(=O)=O)cc2ccccc21.Cl [prokinetic agent, 1-isopropyl-2-oxo-1,2-dihydroquinoline-3-carboxylic acid {(1S,3R,5R)-8-[(R)-2-hydroxy-3-(methanesulfonyl-methyl-amino)propyl]-8-aza-bicyclo[3.2.1]oct-3-yl}amide hydrochloride]
Mean Number of Bowel Movements (10 mg dose): 2.1 (1.2) | Median Time to First Bowel Movement (10 mg dose): 1.6 h | Mean Number of Bowel Movements (20 mg dose): 2.0 (1.5) | Median Time to First Bowel Movement (20 mg dose): 1.0 h | Mean Number of Bowel Movements (30 mg dose): 3.6 (2.4) | Median Time to First Bowel Movement (30 mg dose): 1.1 h | Mean Number of Bowel Movements (50 mg dose): 5.9 (3.9) | Median Time to First Bowel Movement (50 mg dose): 1.1 h | average Bristol score (stool consistency, 1 hard pellets to 7 liquid) (50 mg dose): 5.6 (0.9) | Mean Number of Bowel Movements (70 mg dose): 6.0 (3.0) | Median Time to First Bowel Movement (70 mg dose): 0.9 h | average Bristol score (stool consistency, 1 hard pellets to 7 liquid) (plateau at 20-70 mg): 5.4-6.0 | time at which the effect dissipated post dosing (post dosing): 24 to 48 h
